Like-named read-outs stand apart in the source and are kept apart here. Where a SMILES comes first, the peptide text is derived from it. The star is where a group is joined. Cbz = O=C(OCc1ccccc1)*
Legend:
KMS-11 cells = test: Test for the growth inhibition to KMS-11 (WST-1, 72 hours); format: cell-based, human; details: read-out: IC50 KMS-11 (growth-inhibitory effect, viable cell number)
Method: (§1) A cell solution (90 μL/well) of KMS-11 or KMS-11/Bor suspended in an RPMI1640 medium containing 10% FCS (hereinafter referred to as culture medium) at a concentration of 5×10^4 cells/mL was inoculated in a 96-well microplate (Nunc), and as for a blank the culture medium (100 μL/well each) was added, and the plate was incubated in a 5% carbon dioxide incubator for 5 hours.
(§2) The test compound was serially diluted to yield a diluted solution having a concentration of 10-fold of the final concentration, and the solution (10 μL/well each) was added (n=3 for one concentration). As for a control, the culture medium containing no test compound (10 μL/well each) was added. The tests for the control and the blank were performed in n=8. The incubation was carried out for 72 hours after addition of the test compound, and the number of viable cells was counted with a cell proliferation reagent WST-1 (WST-1 reagent; Roche Diagnostics). The WST-1 reagent (10 μL/well) was added to each plate. The plate was incubated in a carbon dioxide incubator for 2 hours, then stirred on a plate mixer, and the absorbance was measured at 450 nm and 655 nm using a microplate spectrophotometer (Molecular Device; SPECTRAmax 340PC-384). For each well, the differential absorbance was calculated by subtracting the absorbance at 655 nm from that at 450 nm. Further, the absorbance corresponding to the viable cell number was calculated by subtracting the differential absorbance of the blank from the above differential absorbance.
The followings describe the calculation method for IC50. The absorbance corresponding to the viable cell number obtained in the wells untreated with the test compound was regarded as 100%, and the absorbance obtained in the wells treated with the test compound was represented by the relative value (% control). From these values, the IC50 of viable cell number (the concentration at which the viable cell number is reduced to 50% of the control) was calculated. FIGS. 1 to 4 show the % control at the respective concentration of the test compound after treatment with the test compound. […]

[1] = test system: KMS-11/Bor (bortezomib-resistant KMS-11 cells); test: Test for the growth inhibition to KMS-11/Bor (WST-1, 72 hours); format: cell-based, human; details: for IC50: KMS-11/Bor cells, 72 hours, WST-1, read-out: IC50 KMS-11/Bor (growth-inhibitory effect, viable cell number); for IC50 ratio (IC50 of KMS-11/Bor divided by IC50 of KMS-11): degree of bortezomib resistance, KMS-11/Bor vs KMS-11
Method: KMS-11 cells were suspended in an RPMI1640 medium containing 10% fetal calf serum (FCS) at a concentration of 5×10^4 cells/mL, and incubated at 37° C. in a 5% carbon dioxide incubator. Then, bortezomib was added thereto to adjust the final concentration of 5 nmol/L, and the incubation was continued. After confirmation of the survival and satisfactory growth of the cells, the cells were suspended at a concentration of 5×10^4 cells/mL, then bortezomib was added at a concentration of 10 nmol/L, and the incubation was continued. Then, after confirmation of the survival and satisfactory growth of the cells, the concentration of bortezomib was increased step by step, and the culture and subculture were repeated to create the bortezomib-resistant KMS-11 cells being capable of growing at a concentration of 100 nmol/L of bortezomib. Hereinafter, thus prepared cell line was referred to as “KMS-11/Bor”.
as §1, §2
(§3) The followings describe the calculation method for IC50. The absorbance corresponding to the viable cell number obtained in the wells untreated with the test compound was regarded as 100%, and the absorbance obtained in the wells treated with the test compound was represented by the relative value (% control). From these values, the IC50 of viable cell number (the concentration at which the viable cell number is reduced to 50% of the control) was calculated. FIGS. 1 to 4 show the % control at the respective concentration of the test compound after treatment with the test compound. […] In addition, values in which IC50 of KMS-11/Bor is divided by IC50 of KMS-11 (IC50 ratio) is shown in Table 3 as the degree of bortezomib resistance in the respective test compounds.

OPM-2 cells = test: Test for the growth inhibition to OPM-2 (WST-1, 72 hours); format: cell-based, human; details: read-out: IC50 OPM-2 (growth-inhibitory effect, viable cell number)
Method: (§4) A cell solution (90 μL/well) of OPM-2 or OPM-2/Bor suspended in an RPMI1640 medium containing 10% FCS (hereinafter referred to as culture medium) at a concentration of 5×10^4 cells/mL was inoculated in a 96-well microplate (Nunc), and as for a blank the culture medium (100 μL/well each) was added, and the plate was incubated in a 5% carbon dioxide incubator for 5 hours.
as §2, with “concentration” for “concentration,”
The followings describe the calculation method for IC50. The absorbance corresponding to the viable cell number obtained in the wells untreated with the test compound was regarded as 100%, and the absorbance obtained in the wells treated with the test compound was represented by the relative value (% control). From these values, the IC50 of viable cell number (the concentration at which the viable cell number is reduced to 50% of the control) was calculated. FIGS. 5 to 8 show the % control at the respective concentration of the test compound after treatment with the test compound. […]

[2] = test system: OPM-2/Bor (bortezomib-resistant OPM-2 cells); test: Test for the growth inhibition to OPM-2/Bor (WST-1, 72 hours); format: cell-based, human; details: for IC50: OPM-2/Bor cells, 72 hours, WST-1, read-out: IC50 OPM/Bor (growth-inhibitory effect, viable cell number); for IC50 ratio (IC50 of OPM-2/Bor divided by IC50 of OPM-2): degree of bortezomib resistance, OPM-2/Bor vs OPM-2
Method: OPM-2 cells were suspended in an RPMI1640 medium containing 10% fetal calf serum (FCS) at a concentration of 5×10^4 cells/mL, and incubated at 37° C. in a 5% carbon dioxide incubator. Then, bortezomib was added thereto to adjust the final concentration of 2.5 nmol/L, and the incubation was continued. After confirmation of the survival and satisfactory growth of the cells, bortezomib was added at a concentration of 3.75 nmol/L, and the incubation was continued. Then, after confirmation of the survival and satisfactory growth of the cells, the concentration of bortezomib was increased step by step, and the culture and subculture were repeated to create the bortezomib-resistant OPM-2 cells being capable of growing at a concentration of 15 nmol/L of bortezomib. Hereinafter, thus prepared cell line was referred to as “OPM-2/Bor”.
as §4
as §2, with “concentration” for “concentration,”
as §3, with “FIGS. 5” for “FIGS. 1”, “to 8” for “to 4”, “IC50 ratio for OPM-2/Bor was” for “IC50 of KMS-11/Bor is”, “of OPM-2” for “of KMS-11”, “Table 4” for “Table 3”

OPM-2/Bor cells = test: Anti-tumor effect in a mouse model to which the OPM-2/Bor cells have been implanted; format: in vivo; details: for T/C value (V/V0 of group divided by V/V0 of negative control group): Day 14, OPM-2/Bor implanted scid mice
Method: The day before the implantation of cancer cells, an anti-asialo GM1 antibody (0.3 mg/mouse each) was administered intraperitoneally to Fox C. B-17/Icr-scidJcl mice (CLEA Japan, Inc.). The OPM-2/Bor cells were grown by incubation in an RPMI1640 medium containing 10% FCS at 37° C. in a 5% carbon dioxide incubator, and implanted into the ventral subcutaneous portion at a dose of 1×10^7 cells/mouse. Eighteen days after implantation, the major axis and minor axis of the tumor growing in the subcutaneous portion were measured with a vernier micrometer, and the tumor volume was calculated according to the following equation.
At the same time, the body weight of each mouse was measured, and the mice were divided into the following administration groups consisting of 5 mice per group so that the average tumor volume and the average body weight became uniform; and this day was regarded as the test-starting day 0, on which the administration was started.
Compound 22 was dissolved in physiological saline (Otsuka Pharmaceutical Co., Ltd.) at a concentration of 10 or 5 mg/mL, and administered intravenously in the tail vein at a dose of 0.01 mL/g body weight of mouse, respectively, (corresponding to 100 mg/kg and 50 mg/kg) twice a day continuously up to the 4th day from the starting day 0.
Bortezomib was dissolved in physiological saline at a concentration of 0.1 or 0.05 mg/mL, and administered intravenously in the tail vein at a dose of 0.01 mL/g body weight of mouse, respectively, (corresponding to […] and 0.5 mg/kg) once a day on the starting day 0, […].
A. Negative control group (Control): No administration of the test compound B. Bortezomib administered group: 1 mg/kg (administered once a day on the days 0, 3, 7, and 10) C. […]
Following the day 0, the tumor volume was measured twice a week. The anti-tumor effect was determined by calculating the average value of the tumor volume in each group and comparing a change of the tumor volume (V/V0), wherein the tumor volume on the day 0 was defined as V0.

[3] = test system: refractory/recurrent multiple myeloma; details: clinical, New England Journal of Medicine 348, 2609; cited from earlier work
[4] = test system: refractory/recurrent multiple myeloma; details: phase I, IPI-504 alone; cited from earlier work
[5] = test system: refractory/recurrent multiple myeloma; details: phase I, 17-AAG alone; cited from earlier work

| SMILES | IC50 (KMS-11 cells; Homo sapiens) | IC50 ([1]; Homo sapiens) | IC50 ratio (IC50 of KMS-11/Bor divided by IC50 of KMS-11) [1] | IC50 (OPM-2 cells; Homo sapiens) | IC50 ([2]; Homo sapiens) | IC50 ratio (IC50 of OPM-2/Bor divided by IC50 of OPM-2) [2] | T/C value (V/V0 of group divided by V/V0 of negative control group) (OPM-2/Bor cells; B group: 1 mg/kg intravenously once a day on days 0, 3, 7, 10) | T/C value (V/V0 of group divided by V/V0 of negative control group) (OPM-2/Bor cells; C group: 0.5 mg/kg intravenously once a day on days 0, 3, 7, 10) | Anti-tumor effect, change of tumor volume (V/V0), FIG. 9 (OPM-2/Bor cells; OPM-2/Bor implanted mice, Compound 22 100 and 50 mg/kg, bortezomib 1 and 0.5 mg/kg) | Share of refractory/recurrent multiple myeloma in which the drug is effective [3] | Share of refractory/recurrent multiple myeloma in which the drug is ineffective [3] | Cases with SD as anti-tumor effect [4] | IC50 (KMS-11 cells) | IC50 [1] | IC50 (OPM-2 cells) | IC50 [2] | Patients with stable disease (SD) or more effect [5] |
| --- | --- | --- | --- | --- | --- | --- | --- | --- | --- | --- | --- | --- | --- | --- | --- | --- | --- |
| CC(C)C[C@H](NC(=O)[C@H](Cc1ccccc1)NC(=O)c1cnccn1)B(O)O [Bortezomib, bortezomib] | 8.2 nM | 170 nM | 21 | 3.9 nM | 110 nM | 28 | 0.85 | 1.0 | did not show a remarkable growth inhibitory effect | approximately 35% | approximately 40% |  |  |  |  |  |  |
| C=CCNc1c(O)cc2c(O)c1C[C@@H](C)C[C@H](OC)[C@H](O)[C@@H](C)/C=C(\C)[C@H](OC(N)=O)[C@@H](OC)/C=C\C=C(/C)C(=O)N2 [IPI-504] |  |  |  |  |  |  |  |  |  |  |  | 3 out of the 17 |  |  |  |  |  |
| C=CCNC1=C2C[C@@H](C)C[C@H](OC)[C@H](O)[C@@H](C)/C=C(\C)[C@H](OC(N)=O)[C@@H](OC)/C=C\C=C(/C)C(=O)NC(=CC1=O)C2=O [Compound 17-AAG, 17-allylamino-17-demethoxygeldanamycin] |  |  | 0.76 |  |  | 1.1 |  |  |  |  |  |  | 82 nM | 62 nM | 310 nM | 350 nM | 9 out of the 22 |
| CC(C)C[C@@H](C=O)NC(=O)[C@H](CC(C)C)NC(=O)[C@H](CC(C)C)NC(=O)OCc1ccccc1 [MG-132] (Cbz-Leu-Leu-Leu-aldehyde) | 260 nM | 2000 nM | 7.7 | 94 nM | 1500 nM | 16 |  |  |  |  |  |  |  |  |  |  |  |
